Laboratory results reported in US7326700B2, “Cyclohexenyl phenyl carboxamides tocolytic oxytocin receptor antagonists” (Wyeth, priority 2001, dated 2008).

Columns and labels:
[1] = molecular target: T1, human vasopressin V1a receptor subtype (Homo sapiens, UniProt P37288); assay: Vasopressin binding in CHO cell membranes expressing human vasopressin V1a subtype receptors ([3H]Manning ligand radioligand binding); details: for IC50: value in parentheses
T1 construct: host or cells: CHO cells, stably transfected (pZeoSV vector for the Thibonnier line)
Excerpt: Chinese hamster ovary cells (CHO cells) stably transfected with the human vasopressin V1a subtype receptors were either obtained from Biosignal Inc., 1744 rue Williams, Montreal, Quebec, Canada or obtained from M. Thibonnier, Case Western Reserve University School of Medicine, Cleveland, Ohio.
CHO cells transfected with the human vasopressin V1a subtype receptors obtained from M. Thibonnier (pZeoSV vector) are allowed to grow to confluency (approx. >90%) in T-150 flasks under sterile conditions, in a cell culture medium consisting of F-12 Nutrient Mixture (HAM) with L-glutamine (Gibco Cat. #11765-054) containing 15 mM HEPES (Gibco Cat. #15630-080), 1% antibiotic/antimycotic (add 5 mL 100×, Gibco Cat. #15240-062 per 500 mL F-12), 250 μg/mL Zeocin (add 1.25 mL of 100 mg/mL Invitrogen R-250-01 per 500 mL F-12) and 10% Fetal Bovine Serum (Qualified, heat inactivated, Gibco Cat. #16140-063). The medium is removed by aspiration and the cells are washed with 10 mL of Hank's Balanced Salt solution (Gibco Cat. #14175-095). The salt solution is removed by aspiration and the cells are trypsinized with 5 mL of trypsin-EDTA (0.05% trypsin, 0.53 mM EDTA-4Na, Gibco Cat. #25300-070) for 1 min. The trypsin is removed by aspiration and the cells dislodged by tapping. Cell Culture medium (eg, 30 mL for 1:30 split) is immediately added and mixed well to inactivate trypsin. 1 mL of detached cells is added to new culture flasks containing fresh cell culture medium (eg, into 25 mL per T-150 flask), and mixed gently. The cells are incubated at 37° C. in 5% CO2. The medium is changed at 3 to 4 days interval (or as appropriate). The cells grow to confluency (approx. >75%-95%) within 7-8 days. All steps are done under sterile conditions.
The cells are washed twice gently with Hank's Balanced Salt solution (e.g,. use 10 mL per T-150 flask). The excess is removed and the cells are bathed for 15-30 min. in an enzyme-free Cell Dissociation Buffer (e.g. use 8 mL Hank's Based, Gibco Cat. #13150-016 per T-150 flask) until the cells are loosened. The contents are transferred to centrifuge tubes (50 mL) kept in an ice bath. All subsequent steps are done at 4° C. The tubes are centrifuged at 300×g for 15 min (1380 rpm on SORVAL, Model RT6000D, using the rotor for 50 mL tubes). The supernatant is discarded and the cells suspended in homogeneizing buffer (10 mM Tris-HCl containing 0.25 M sucrose and 1 mM EDTA, pH 7.4) ensuring that the volume of the buffer is about ten times the volume of the cell pellet. The cells are pooled into a centrifuge tube (50 mL) and homogenized with Polytron at setting 6 for 10 sec. The homogenate is transferred into a Potter-Elvjehm homogenizer and homogenized with 3 strokes. The homogenate is centrifuged at 1500×g for 10 min at 4° C. (3100 rpm using SORVAL, model RT6000D, using the rotor for 50 mL tubes). The pellet is discarded. The supernatant is centrifuged at 100,000×g for 60 min. at 4° C. (Beckman L8-80M ultracentrifuge; spin at 37,500 rpm with rotor type 70 Ti for 50 mL tubes; 38,000 rpm with type 80Ti for 15 mL tubes; or 35,800 rpm with rotor type 45Ti). The supernantant is discarded and the pellet suspended in 3 to 4 mL of Tris buffer (50 mM TRIS-HCl, pH 7.4). The protein content is estimated by the Bradford or Lowry method. The volume of the membrane suspension is adjusted with the membrane buffer (50 mM Tris-HCl containing 0.1% BSA and 0.1 mM PMSF) to give 3.0 mg/mL (or as appropriate) of protein. The membranes are aliquoted and stored at −70° C.
In wells of a 96-well format microtiter plate, is added 90, 110 or 130 μL (to make up a final volume of 200 μL) of assay buffer containing 50 mM of Tris-HCl (pH 7.4), BSA (heat inactivated, protease-free), […], 1 mg % aprotinin, 1 mg % leupeptin, 2 mg % 1,10-phenanthroline, 10 mg % trypsin inhibitor, and 0.1 mM PMSF. The inhibitors are added on the day of the experiment. […]

T1 sequence (P37288 whole entry): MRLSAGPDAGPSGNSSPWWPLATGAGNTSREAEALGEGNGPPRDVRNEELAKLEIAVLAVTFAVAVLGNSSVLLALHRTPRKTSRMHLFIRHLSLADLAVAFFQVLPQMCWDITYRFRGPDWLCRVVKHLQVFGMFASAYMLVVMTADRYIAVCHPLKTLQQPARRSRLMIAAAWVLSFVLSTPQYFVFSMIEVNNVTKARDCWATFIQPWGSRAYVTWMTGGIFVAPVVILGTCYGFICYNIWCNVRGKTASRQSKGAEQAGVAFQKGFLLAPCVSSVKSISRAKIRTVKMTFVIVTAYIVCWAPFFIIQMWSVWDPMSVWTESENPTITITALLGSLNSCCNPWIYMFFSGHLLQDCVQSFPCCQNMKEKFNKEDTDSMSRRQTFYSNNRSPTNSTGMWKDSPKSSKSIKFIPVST

melting point [°C] | IC50 [1] [nM] | V1a % inhibition @ 100 nM ([1]; 100 nM) [%] | Compound | other results
109 to 121 | 1280 |  | COc1cc(C2=CCCCC2)c(Cl)cc1C(=O)N1Cc2ccc(C(=O)N3CCC[C@H]3CN3CCCC3)n2Cc2ccccc21 [Example 1, 4-Chloro-5-cyclohex-1-en-1-yl-2-[(3-{[(2S)-2-(pyrrolidin-1-ylmethyl)pyrrolidin-1-yl]carbonyl}-5H-pyrrolo [2,1-c][1,4]benzodiazepin-10(11H)-yl)carbonyl]phenyl methyl ether] | 
 |  | 24 | Cc1cc(C(=O)N2Cc3ccc(C(=O)N4CCN(C(C)C)CC4)n3Cc3ccccc32)ccc1C1=CCCCC1 [Example 25, {10-[4-(1-Cyclohex-1-en-1-yl)-3-methylbenzoyl]-1 0,11-dihydro-5H-pyrrolo[2,1-c][1,4]benzodiazepin-3-yl}(4-isopropyl-1-piperazinyl)methanone] | 
 |  | 38 | Cc1cc(C(=O)N2Cc3ccc(C(=O)N4CCC[C@H]4CN4CCCC4)n3Cc3ccccc32)ccc1C1=CCCCC1 [Example 26, {10-[4-(1-Cyclohex-1-en-1-yl)-3-methylbenzoyl]-10,11-dihydro-5H-pyrrolo[2,1-c][1,4]benzodiazepin-3-yl}[(2S)-2-(1-pyrrolidinylmethyl)pyrrolidinyl]methanone] | 
 | 421 |  | {10-[4-(1-Cyclohexen-1-yl)-3-methylbenzoyl]-10,11-dihydro-5H-pyrrolo[2,1-c][1,4]benzodiazepin-3-yl}(4-methyl-piperazin-1-yl)methanone [Example 12] | 

The next lines start with the compound.

Compound | melting point [°C] | IC50 [1] [nM] | V1a % inhibition @ 100 nM ([1]; 100 nM) [%] | other results
CC1=C(c2ccc(C(=O)N3Cc4ccc(C(=O)N5CCN(C)CC5)n4Cc4ccccc43)cc2C)CCC[C@H]1O [Example 11, [4-((3R)-3-Hydroxy-2-methyl-cyclohex-1-en-1-yl)-3-methyl-phenyl]-[3-(4-methyl-piperazine-1-carbonyl)-10,11-dihydro-5H-pyrrolo [2,1-c][1,4]benzodiazepin-10-yl]-methanone] | 102 to 153 |  |  | inhibition at 0.1 µM ([1]; 100 nM): 26%
Cc1cc(C(=O)N2Cc3ccc(C(=O)N4CC[C@@H](N(C)C)C4)n3Cc3ccccc32)ccc1C1=CCCCC1 [Example 27, {10-[4-(1-Cyclohex-1-en-1-yl)-3-methylbenzoyl]-10,11-dihydro-5H-pyrrolo[2,1-c][1,4]benzodiazepin-3-yl}[(3R)-3-(dimethylamino)pyrrolidinyl]methanone] |  |  | 62 | 
